Reference: patent publication US11981630B1, “Abietane type diterpene compound, preparation method and application thereof” (Hangzhou Normal University, priority 2022, dated 2024)
Values joined by “and” are separate entries in the source; they are usually repeats but may differ in a detail not shown here. Equal values may be shown once. Read-outs that look alike come from different tables or passages of the source.

Columns and labels:
[1] = test system: human promyelocytic leukemia cell HL-60; experiment: in vitro tumor cell proliferation inhibition assay (MTT), HL-60; type: cell-based; details: for absorbance at 570 nm, Average: average of 3 wells; for absorbance at 570 nm, Average / Survival / absorbance at 570 nm (single well, S/N 1-3): parallel tests I-III; for absorbance at 570 nm (single well, S/N 1-3): MTT
Method: (§1) The abietane type diterpene compound Leucosceptrum A prepared in Embodiment 2 is tested for its anti-tumor ability, with a process as follows: in vitro tumor cell proliferation inhibition assay: exponential phase tumor cells are taken and the cell suspension concentration is adjusted (50,000-100,000 cells/mL), then the cell suspension is inoculated in 96-well plate with 100 microlitres (u L) per well (M L/well), followed by drug administration (100 μL/well) 24 h after inoculation; a blank control group, a cell control group and 6 drug groups with concentrations (3.12, 6.25, 12.5, 25, 50, 100 micromoles per litre (u mol/L)) are set up respectively, and the drug in the cell control group is cisplatin; after continuous cultivation for 72 […]

[2] = test system: human lung cancer cell A549; experiment: in vitro tumor cell proliferation inhibition assay (MTT), A549; type: cell-based; details: for absorbance at 570 nm, Average: average of 3 wells; for absorbance at 570 nm, Average / Survival / absorbance at 570 nm (single well, S/N 1-3): parallel tests I-III; for absorbance at 570 nm (single well, S/N 1-3): MTT
Method: as §1

[3] = test system: mouse liver cancer cells; details: MTT assay, reported in CN101633660A; cited from earlier work
[4] = test system: mouse sarcoma cells; details: MTT assay, reported in CN101633660A; cited from earlier work
[5] = HL-60, 72 h, mean ± spread of parallel tests, unit inferred, read-out: IC50 obtained according to the above data (three parallel tests)
[6] = HL-60, 72 h, one value per parallel test I, II, III, unit not given (concentrations in μmol/L), read-out: IC50 according to Graphpad Prism 6.0 (single parallel test)
[7] = A549, 72 h, mean ± spread of parallel tests, unit inferred, read-out: IC50 according to the above data (three parallel tests)
[8] = A549, 72 h, one value per parallel test I, II, III, unit not given (concentrations in μmol/L), read-out: IC50 according to Graphpad Prism 6.0 (single parallel test)

Row | Compound | absorbance at 570 nm, Average ([1]; HL-60, 3.12 μmol/L, 72 h) | Survival ([1]; HL-60, 3.12 μmol/L, 72 h) | absorbance at 570 nm, Average ([1]; HL-60, 6.25 μmol/L, 72 h) | Survival ([1]; HL-60, 6.25 μmol/L, 72 h) | absorbance at 570 nm, Average ([1]; HL-60, 12.5 μmol/L, 72 h) | Survival ([1]; HL-60, 12.5 μmol/L, 72 h) | Survival ([1]; HL-60, 25 μmol/L, 72 h) | absorbance at 570 nm, Average ([1]; HL-60, 50 μmol/L, 72 h) | Survival ([1]; HL-60, 50 μmol/L, 72 h) | absorbance at 570 nm, Average ([1]; HL-60, 100 μmol/L, 72 h) | Survival ([1]; HL-60, 100 μmol/L, 72 h) | IC50 [1, 5] | IC50 [1, 6] | absorbance at 570 nm, Average ([2]; A549, 3.12 μmol/L, 72 h) | Survival ([2]; A549, 3.12 μmol/L, 72 h) | absorbance at 570 nm, Average ([2]; A549, 6.25 μmol/L, 72 h) | Survival ([2]; A549, 6.25 μmol/L, 72 h) | absorbance at 570 nm, Average ([2]; A549, 12.5 μmol/L, 72 h) | Survival ([2]; A549, 12.5 μmol/L, 72 h) | Survival ([2]; A549, 25 μmol/L, 72 h) | also measured
1 | N.N.[Cl][Pt][Cl] [Cisplatin, cisplatin, reference compound] | 0.6123 and 0.433 and 0.4877 | 96.57% and 87.56% and 92.66% | 0.416 and 0.3023 and 0.4303 | 65.51% and 61.20% and 81.78% | 0.312 and 0.2347 and 0.231 | 49.05% and 47.55% and 43.96% | 43.57% and 22.80% and 31.06% | 0.11 and 0.076 and 0.0597 | 17.09% and 15.53% and 11.45% | 0.0213 and 0.0253 and 0.017 | 3.06% and 5.31% and 3.35% | 12.7 ± 1.87 µM | 14.4 µM and 10.7 µM and 13.2 µM | 0.666 and 0.6207 and 0.678 | 97.75% and 98.46% and 96.86% | 0.442 and 0.4673 and 0.4623 | 64.82% and 74.09% and 66.03% | 0.2543 and 0.2593 and 0.265 | 37.24% and 41.02% and 37.88% | 35.18% and 37.36% and 35.35% | absorbance at 570 nm (single well, S/N 1-3) ([1]; HL-60, 12.5 μmol/L, 72 h): 0.346 and 0.244 and 0.185 and 0.299 and 0.22 and 0.197 and 0.201 and 0.295; absorbance at 570 nm, Average ([2]; A549, 50 μmol/L, 72 h): 0.2027 and 0.2047 and 0.2257; Survival ([2]; A549, 50 μmol/L, 72 h): 29.64% and 32.33% and 32.21%; absorbance at 570 nm, Average ([2]; A549, 100 μmol/L, 72 h): 0.1913 and 0.189 and 0.2023; Survival ([2]; A549, 100 μmol/L, 72 h): 27.98% and 29.84% and 28.87%; IC50 [2, 7]: 16 ± 1.69 µM; IC50 [2, 8]: 14.6 µM and 17.9 µM and 15.4 µM
2 | C=C(C)c1cc(O)c2c(c1O)C(=O)CC1C(C)(C)CCCC21C (stereo not drawn) [Leucosceptrum A, 11,14-dihydroxy-8,11,13,15-abietatetraen-7-one] | 0.4477 and 0.4213 and 0.3807 | 82.21% and 78.96% and 66.67% | 0.3683 and 0.3987 and 0.364 | 67.61% and 74.70% and 63.73% | 0.221 and 0.1817 and 0.281 | 40.49% and 33.94% and 49.09% | 16.13% and 10.64% and 11.79% | 0.052 and 0.0433 and 0.048 | 9.39% and 7.95% and 8.00% | 0.0303 and 0.032 and 0.039 | 5.40% and 5.82% and 6.41% | 9.06 ± 0.59 µM | 9.58 µM and 9.19 µM and 8.42 µM | 0.815 and 0.7807 and 0.813 | 98.11% and 95.42% and 95.31% | 0.7823 and 0.7553 and 0.7943 | 94.17% and 92.31% and 93.11% | 0.6333 and 0.6687 and 0.59 | 76.22% and 81.68% and 69.13% | 21.90% and 23.22% and 22.81% | absorbance at 570 nm, Average ([1]; HL-60, 25 μmol/L, 72 h): 0.0887 and 0.0577 and 0.069; absorbance at 570 nm (single well, S/N 1-3) ([1]; HL-60, 50 μmol/L, 72 h): 0.049 and 0.054 and 0.053 and 0.048 and 0.045 and 0.037 and 0.038; IC50 ([1]; HL-60 cells, 72 h, read-out: 72-hour IC50): 9.06 ± 0.59 µM; absorbance at 570 nm (single well, S/N 1-3) ([2]; A549, 6.25 μmol/L, 72 h): 0.828 and 0.791 and 0.728 and 0.711 and 0.786 and 0.769 and 0.822 and 0.77; absorbance at 570 nm, Average ([2]; A549, 25 μmol/L, 72 h): 0.1827 and 0.192 and 0.1953; absorbance at 570 nm (single well, S/N 1-3) ([2]; A549, 50 μmol/L, 72 h): 0.085 and 0.074 and 0.077 and 0.059 and 0.071 and 0.079 and 0.088; absorbance at 570 nm, Average ([2]; A549, 50 μmol/L, 72 h): 0.0813 and 0.07 and 0.0793; Survival ([2]; A549, 50 μmol/L, 72 h): 9.68% and 8.76% and 9.19%; absorbance at 570 nm (single well, S/N 1-3) ([2]; A549, 100 μmol/L, 72 h): 0.078 and 0.067 and 0.085 and 0.073 and 0.066 and 0.058; absorbance at 570 nm, Average ([2]; A549, 100 μmol/L, 72 h): 0.0767 and 0.0657 and 0.069; Survival ([2]; A549, 100 μmol/L, 72 h): 9.12% and 7.73% and 7.98%; IC50 [2, 7]: 17.5 ± 0.88 µM; IC50 [2, 8]: 17.6 µM and 18.4 µM and 16.6 µM; IC50 ([2]; A-549 cells, 72 h, read-out: 72-hour IC50): 17.5 ± 0.88 µM
3 | lushanrubescensin D |  |  |  |  |  |  |  |  |  |  |  |  |  |  |  |  |  |  |  |  | inhibitory effect on mouse liver cancer cells [3]: significant inhibitory effect; inhibitory effect on mouse sarcoma cells [4]: significant inhibitory effect
